This is an account of results in ChEMBL document CHEMBL3774358 (Eur J Med Chem, 2016).

For test [1], the target named is Actin nucleation-promoting factor WASL (Rattus norvegicus, UniProt O08816). The test can be described thus: Inhibition of full-length rat N-WASP-induced Arp2/3 activation by fluorescence assay.
Test [2] can be described thus: Inhibition of GFP-tagged Xenopus laevis kinesin-5 microtubule gliding velocity by fluorescence assay.

Actin nucleation-promoting factor WASL, sequence (O08816 whole entry): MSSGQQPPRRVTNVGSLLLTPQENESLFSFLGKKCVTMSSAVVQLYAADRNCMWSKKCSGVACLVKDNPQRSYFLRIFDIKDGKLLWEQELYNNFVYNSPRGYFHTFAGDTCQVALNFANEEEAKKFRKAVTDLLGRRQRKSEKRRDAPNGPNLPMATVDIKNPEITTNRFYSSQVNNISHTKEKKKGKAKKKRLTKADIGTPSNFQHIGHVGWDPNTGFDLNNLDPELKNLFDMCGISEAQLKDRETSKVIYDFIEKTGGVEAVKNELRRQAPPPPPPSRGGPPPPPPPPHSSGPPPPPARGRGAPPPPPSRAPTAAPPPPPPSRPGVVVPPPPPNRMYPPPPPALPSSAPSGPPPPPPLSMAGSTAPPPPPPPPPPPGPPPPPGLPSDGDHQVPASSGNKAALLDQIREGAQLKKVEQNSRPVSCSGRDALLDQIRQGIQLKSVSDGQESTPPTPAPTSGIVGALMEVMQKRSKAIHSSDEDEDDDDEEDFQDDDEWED

Broadly, the IC50 is the concentration that inhibits the measured activity by half. High values mean a need for much substance, low ones inhibition by little substance. As to `CN(C)C[C@@H](O)Cn1c2ccc(Br)cc2c2cc(Br)ccc21`, half-maximal inhibition in test [1] (IC50) required 3.44 µM.

`CN(C)C[C@H](O)Cn1c2ccc(Br)cc2c2cc(Br)ccc21` [WISKOSTATIN] displayed an IC50 in test [1] of 4.35 µM.

The compound `CCOC(=O)C1=C(C)NC(=S)NC1c1cccc(O)c1` (stereo not drawn) [MONASTROL] had an IC50 in test [2] of 14 µM. This lies in the double-digit micromolar range.
